Assay results published in patent US20250215039A1, “NUCLEOSIDES FOR TREATING CANCER” (PRIMEFOUR THERAPEUTICS, INC., priority 2022, published 2025).
Like-named read-outs stand apart in the source and are kept apart here.

System: cancer cell lines
Test: Cancer cell proliferation activity (CellTiterGlo, 72 h)
Assay type: cell-based
Details: 72 h, 72 h, read-out: IC50
Outline: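 Cells seeded overnight at 37 °C, then dosed with compound at 0.1% final DMSO and incubated 72 h at 37 °C (5% or 10% CO2 by medium).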

IC50 (5637 cell line (bladder)): 0.88 µM
IC50 (CLS439 cell line (bladder)): > 50 µM
IC50 (HS729 cell line (muscle)): 1.24 µM
IC50 (JAR cell line (placenta)): 0.44 µM
IC50 (U20S cell line, bone): 0.84 µM
IC50 (Homo sapiens, 22Rv1, 72 h, 22RV1 cell line (prostate)): 1.86 µM
IC50 (Homo sapiens, 786-0, 72 h, 786O cell line (kidney)): 0.62 µM
IC50 (Homo sapiens, A204, 72 h, A204 cell line (muscle)): 0.55 µM
IC50 (Homo sapiens, A549, 72 h, A549 cell line, lung): > 50 µM
IC50 (Homo sapiens, A673, 72 h, A673 cell line (bone)): 2.56 µM
IC50 (Homo sapiens, A2780, 72 h, A2780 cell line (ovary)): 0.91 µM
IC50 (Homo sapiens, A-375, 72 h, A375 cell line (skin)): 0.53 µM
IC50 (Homo sapiens, A-431, 72 h, A431 cell line (skin)): 0.53 µM
IC50 (Homo sapiens, ACHN, ACHN cell line (kidney)): > 50 µM
IC50 (Homo sapiens, ASPC1, 72 h, ASPC1 cell line (pancreas)): 0.47 µM
IC50 (Homo sapiens, BT-20, 72 h, BT20 cell line (breast)): 0.55 µM
IC50 (Homo sapiens, C-33-A, C33A cell line, endometrial): 0.95 µM
IC50 (Homo sapiens, CAKI-1, 72 h, CAKI1 cell line (kidney)): 0.06 µM
IC50 (Homo sapiens, COLO 205, 72 h, COLO205 cell line (colon)): 1.06 µM
IC50 (Homo sapiens, COLO-678, 72 h, COLO678 cell line (colon)): > 50 µM
IC50 (Homo sapiens, Ca-Ski, CASKI cell line, endometrial): 0.31 µM
IC50 (Homo sapiens, Caco-2, 72 h, CACO2 cell line (colon)): 1.04 µM
IC50 (Homo sapiens, Calu-6, 72 h, CALU6 cell line (lung)): 0.65 µM
IC50 (Homo sapiens, DLD-1, 72 h, DLD1 cell line (colon)): 2.07 µM
IC50 (Homo sapiens, DU-145, 72 h, DU145 cell line (prostate)): 0.19 µM
IC50 (Homo sapiens, EFO-21, 72 h, EFO21 cell line (ovary)): 0.52 µM
IC50 (Homo sapiens, EJ-28, 72 h, EJ28 cell line (bladder)): 0.49 µM
IC50 (Homo sapiens, Granta-519, 72 h, GRANTA-519 cell line (hematological)): > 50 µM
IC50 (Homo sapiens, HCT-15, 72 h, HCT15 cell line (colon)): 2.78 µM
IC50 (Homo sapiens, HCT-116, 72 h, HCT116 cell line (colon)): 0.82 µM
IC50 (Homo sapiens, HEK293, 72 h, HEK293 cell line (kidney)): 0.71 µM
IC50 (Homo sapiens, HL-60, 72 h, HL-60 cell line (hematological)): 0.83 µM
IC50 (Homo sapiens, HT-29, 72 h, HT29 cell line (colon)): 0.53 µM
IC50 (Homo sapiens, HT-1080, 72 h, HT1080 cell line (connective tissue)): > 50 µM
IC50 (Homo sapiens, HeLa, HELA cell line, endometrial): 1.07 µM
IC50 (Homo sapiens, HepG2, 72 h, HEPG2 cell line (liver)): 0.67 µM
IC50 (Homo sapiens, Hs-578T, HS578T cell line, breast): 0.85 µM
IC50 (Homo sapiens, IGROV-1, 72 h, IGROV1 cell line (ovary)): 0.38 µM
IC50 (Homo sapiens, IMR-90, 72 h, IMR90 cell line, lung): 0.64 µM
IC50 (Homo sapiens, J82, 72 h, J82 cell line (bladder)): 0.54 µM
IC50 (Homo sapiens, JEG-3, 72 h, JEG3 cell line (placenta)): 0.67 µM
IC50 (Homo sapiens, JIMT-1, 72 h, JIMT1 cell line (breast)): 0.16 µM
IC50 (Homo sapiens, K562, 72 h, K-562 cell line (hematological)): > 50 µM
IC50 (Homo sapiens, Kasumi 1, 72 h, KASUMI-1 cell line (hematological)): 0.15 µM
IC50 (Homo sapiens, L-363, 72 h, L-363 cell line (hematological)): 0.57 µM
IC50 (Homo sapiens, LoVo, LOVO cell line (colon)): 0.29 µM
IC50 (Homo sapiens, MCF7, 72 h, MCF7 cell line (breast)): > 50 µM
IC50 (Homo sapiens, MDA-MB-231, 72 h, MDAMB231 cell line (breast)): > 50 µM
IC50 (Homo sapiens, MDA-MB-435, 72 h, MDAMB435 cell line (skin)): 1.72 µM
IC50 (Homo sapiens, MDA-MB-436, 72 h, MDAMB436 cell line (breast)): 0.37 µM
IC50 (Homo sapiens, MDA-MB-468, 72 h, MDAMB468 cell line (breast)): 0.69 µM
IC50 (Homo sapiens, MG-63, 72 h, MG63 cell line (bone)): > 50 µM
IC50 (Homo sapiens, MHH-ES-1, 72 h, MHHES1 cell line (bone)): 0.6 µM
IC50 (Homo sapiens, MIA PaCa-2, 72 h, MIAPACA2 cell line (pancreas)): > 50 µM
IC50 (Homo sapiens, MINO, MINO cell line (hematological)): 0.25 µM
IC50 (Homo sapiens, MV4-11, 72 h, MV4-11 cell line (hematological)): 0.17 µM
IC50 (Homo sapiens, NCI-H23, 72 h, NCI-H23 cell line (lung)): 0.83 µM
IC50 (Homo sapiens, NCI-H82, 72 h, NCIH82 cell line (lung)): 0.61 µM
IC50 (Homo sapiens, NCI-H292, 72 h, NCIH292 cell line (lung)): > 50 µM
IC50 (Homo sapiens, NCI-H460, 72 h, NCIH460 cell line (lung)): 0.97 µM
IC50 (Homo sapiens, OVCAR-3, 72 h, OVCAR3 cell line (ovary)): 0.26 µM
IC50 (Homo sapiens, OVCAR-4, 72 h, OVCAR4 cell line (ovary)): 0.96 µM
IC50 (Homo sapiens, PANC-1, 72 h, PANC1 cell line (pancreas)): > 50 µM
IC50 (Homo sapiens, PC-3, 72 h, PC3 cell line (prostate)): 0.87 µM
IC50 (Homo sapiens, PLC-PRF-5, 72 h, PLCPRF5 cell line (liver)): 3.2 µM
IC50 (Homo sapiens, Panc1005, 72 h, PANC1005 cell line (pancreas)): 0.44 µM
IC50 (Homo sapiens, RD, RD cell line (muscle)): 1.46 µM
IC50 (Homo sapiens, Ramos, RAMOS cell line (hematological)): 0.94 µM
IC50 (Homo sapiens, SAOS-2, 72 h, SAOS2 cell line (bone)): 0.64 µM
IC50 (Homo sapiens, SF-268, 72 h, SF268 cell line (brain)): > 50 µM
IC50 (Homo sapiens, SF-295, 72 h, SF295 cell line (brain)): 1.42 µM
IC50 (Homo sapiens, SK-BR-3, 72 h, SKBR3 cell line (breast)): 0.15 µM
IC50 (Homo sapiens, SK-HEP1, 72 h, SKHEP1 cell line (liver)): > 50 µM
IC50 (Homo sapiens, SK-LMS-1, 72 h, SKLMS1 cell line (uterus)): 0.47 µM
IC50 (Homo sapiens, SK-MEL-5, 72 h, SKMEL5 cell line, skin): > 50 µM
IC50 (Homo sapiens, SK-MEL-28, 72 h, SKMEL28 cell line (skin)): 1.26 µM
IC50 (Homo sapiens, SK-N-AS, SKNAS cell line (brain)): 1.14 µM
IC50 (Homo sapiens, SK-N-SH, SKNSH cell line (brain)): 0.75 µM
IC50 (Homo sapiens, SK-OV-3, 72 h, SKOV3 cell line (ovary)): 0.76 µM
IC50 (Homo sapiens, SNB-75, 72 h, SNB75 cell line (brain)): 2.37 µM
IC50 (Homo sapiens, SU-DHL10, 72 h, SU-DHL-10 cell line (hematological)): 0.12 µM
IC50 (Homo sapiens, SU-DHL-6, 72 h, SU-DHL-6 cell line (hematological)): 0.43 µM
IC50 (Homo sapiens, SW-620, 72 h, SW620 cell line (colon)): 0.73 µM
IC50 (Homo sapiens, T-24, 72 h, T24 cell line (bladder)): 1.46 µM
IC50 (Homo sapiens, TE-671, 72 h, TE671 cell line (muscle)): 4.78 µM
IC50 (Homo sapiens, THP-1, 72 h, THP-1 cell line (hematological)): > 50 µM
IC50 (Homo sapiens, U-87 MG, U87MG cell line (brain)): > 50 µM
IC50 (Homo sapiens, UMUC3, 72 h, UMUC3 cell line (bladder)): > 50 µM
IC50 (Homo sapiens, UO-31, 72 h, UO31 cell line (kidney)): 0.63 µM
IC50 (Homo sapiens, WSU-NHL, WSU-NHL cell line (hematological)): 0.72 µM
IC50 (MT-3, 72 h, MT3 cell line (breast)): 0.51 µM
IC50 (NCI-H358M, NCIH358M cell line (lung)): 0.56 µM
IC50 (PBMC, PBMC (hematological)): 0.31 µM
IC50 (RD-ES, RDES cell line (bone)): 0.41 µM
Compound: CC[C@]1(CO)O[C@@H](n2cnc3c(N)nc(F)nc32)C[C@@H]1O [Cpd. No. 1, (2R,3S,5R)-5-(6-amino-2-fluoro-9H-purin-9-yl)-2-ethyl-2-(hydroxymethyl)tetrahydrofuran-3-ol]
